Read-outs that look alike come from different tables or passages of the source.
Assay: Antimicrobial activity assay: whole-cell MIC by broth microdilution (NCCLS M7-A6)
Type: cell-based
Experimental: Whole-cell antimicrobial activity was determined by broth microdilution using the National Committee for Clinical Laboratory Standards (NCCLS) recommended procedure, Document M7-A6, “Methods for Dilution Susceptibility Tests for Bacteria that Grow Aerobically”. The compounds were tested in serial two-fold dilutions ranging from 0.016 to 16 mcg/mL. Compounds were evaluated against a panel of Gram-positive organisms, including Staphylococcus aureus WCUH29, Streptococcus pneumoniae 1629, Streptococcus pyogenes CN 10, and Enterococcus faecalis 2. In addition, compounds were evaluated against a panel of Gram-negative strains including Haemophilus influenzae NEMC1, E. coli 7623, and Moraxella catarrhalis Ravasio. The minimum inhibitory concentration (MIC) was determined as the lowest concentration of compound that inhibited visible growth. A mirror reader was used to assist in determining the MIC endpoint.
Compounds of the present invention have MIC's ≦20 μg/ml versus all the organisms named above.

[1] = versus all the organisms named above (S. aureus WCUH29, S. pneumoniae 1629, S. pyogenes CN 10, E. faecalis 2, H. influenzae NEMC1, E. coli 7623, M. catarrhalis Ravasio), read-out: MIC

Row | SMILES | MIC [1] [µg/mL] | MIC [µg/mL]
1 | COc1ccc2ncc(F)c(CCN3CCC(NCc4cnc5c(c4)NC(=O)CS5)CC3)c2n1.Cl.Cl [Example 56, 7-{[(1-(2-[3-fluoro-6-(methoxy)-1,5-naphthyridin-4-yl]ethyl}-4-piperidinyl)amino]methyl}-1H-pyrido[2,3-b][1,4]thiazin-2(3H)-one dihydrochloride] | ≤ 2 | 
2 | COc1ccc2ncc(Cl)c(CCN3CCC(CO)(NCc4ccc5c(n4)NC(=O)CS5)CC3)c2c1.Cl.Cl [Example 21, 6-({1-[2-(3-Chloro-6-methoxyquinolin-4-yl)ethyl]4-hydroxymethylpiperidin-4-ylamino}methyl)-4H-pyrido[3,2-b][1,4]thiazin-3-one Dihydrochloride] | ≤ 2 | 
3 | COc1ccc2ncc(F)c(CCN3CCC(NCc4ccc5nsnc5c4)CC3)c2c1.Cl.Cl [Example 79, N-(2,1,3-benzothiadiazol-5-ylmethyl)-1-{2-[3-fluoro-6-(methoxy)-4-quinolinyl]ethyl}-4-piperidinamine dihydrochloride] |  | ≤ 2
4 | COc1ccc2ncc(F)c(CCN3CCC(NCC4=CC=C5CCCN=C5N4)CC3)c2c1.Cl.Cl [Example 77, 1-{2-[3-fluoro-6-(methoxy)-4-quinolinyl]ethyl}-N-(1,5,6,7-tetrahydro-1,8-naphthyridin-2-ylmethyl)-4-piperidinamine dihydrochloride] | ≤ 2 | 
5 | COc1cc(F)c2ncc(F)c(CCN3CC[C@H](NCc4ccc5c(n4)NC(=O)CS5)[C@H](O)C3)c2c1.Cl.Cl (single isomer, unassigned; enantiomer 1) [Example 73] | ≤ 2 | 
6 | COc1ccc2ncc(F)c(CCN3CCC(CO)(NC(=O)c4ccc5c(n4)NC(=O)CS5)CC3)c2n1.Cl [Example 93, N-[1-{2-[3-fluoro-6-(methoxy)-1,5-naphthyridin-4-yl]ethyl}-4-(hydroxymethyl)-4-piperidinyl]-3-oxo-3,4-dihydro-2H-pyrido[3,2-b][1,4]thiazine-6-carboxamide hydrochloride] | ≤ 2 | 
7 | COc1ccc2ncc(F)c(CCN3CC[C@H](NCc4cc5c(cn4)OCCO5)[C@H](O)C3)c2n1.Cl.Cl (single isomer, unassigned; enantiomer 1) [Example 66] | ≤ 2 | 
8 | COc1ccc2ncc(Cl)c(CCN3CC[C@@H](NCc4ccc5c(n4)NC(=O)CS5)[C@H](O)C3)c2c1.Cl.Cl.Cl (single isomer, unassigned; enantiomer 2) [Example 17, 6-({(trans)-1-[2-(3-Chloro-6-methoxyquinolin-4-yl)ethyl]3-hydroxypiperidin-4-ylamino}methyl)-4H-pyrido[3,2-b][1,4]thiazin-3-one Trihydrochloride enantiomer 2] | ≤ 2 | 
9 | COc1ccc2ncc(F)c(CCN3CCC(C)(NC(=O)c4ccc5c(n4)NC(=O)CS5)CC3)c2n1 [Example 168, N-(1-{2-[3-fluoro-6-(methoxy)-1,5-naphthyridin-4-yl]ethyl}-4-methyl-4-piperidinyl)-3-oxo-3,4-dihydro-2H-pyrido[3,2-b][1,4]thiazine-6-carboxamide] | ≤ 2 | 
10 | COc1c(F)ccc2ncc(Cl)c(CCN3CCC(NCc4ccc5c(n4)NC(=O)CS5)CC3)c12.Cl.Cl [Example 22, 6-({1-[2-(3-Chloro-6-fluoro-5-methoxy-quinolin-4-yl)-ethyl]-piperidin-4-ylamino}-methyl)-4H-pyrido[3,2-b][1,4]thiazin-3-one Dihydrochloride] | ≤ 2 | 
11 | COc1ccc2ncc(Cl)c(CCN3CCC(NCc4cc5c(cn4)OCCO5)CC3)c2n1.Cl.Cl [Example 3, {1-[2-(3-Chloro-6-methoxy-[1,5]naphthyridin-4-yl)-ethyl]-piperidin-4-yl}-(2,3-dihydro-[1,4]dioxino[2,3-c]pyridin-7-ylmethyl)-amine Dihydrochloride] | ≤ 2 | 
12 | COc1ccc2ncc(F)c(CCN3CCC(NCc4cc5c(nn4)SCC(=O)N5)CC3)c2n1.Cl.Cl [Example 58, 3-{[(1-{2-[3-fluoro-6-(methoxy)-1,5-naphthyridin-4-yl]ethyl}-4-piperidinyl)amino]methyl}-5H-pyridazino[3,4-b][1,4]thiazin-6(7H)-one dihydrochloride] | ≤ 2 | 
13 | COc1ccc2ncc(Cl)c(CCN3CC[C@@H](NCc4ccc5c(n4)NC(=O)CO5)[C@H](O)C3)c2n1.Cl.Cl.Cl (single isomer, unassigned; enantiomer 1) [Example 153, trans-6-({1-[2-(3-Chloro-6-methoxy-[1,5]naphthyridin-4-yl)-ethyl]-3-hydroxy-piperidin-4-ylamino}-methyl)-4H-pyrido[3,2-b][1,4] oxazin-3-one trihydrochloride Enantiomer 1] | ≤ 2 | 
14 | COc1ccc2ncc(F)c(CCN3CCC(C)(NCc4ccc5c(n4)NC(=O)CO5)CC3)c2n1.Cl.Cl [Example 138, 6-{[(1-{2-[3-fluoro-6-(methoxy)-1,5-naphthyridin-4-yl]ethyl}-4-methyl-4-piperidinyl)amino]methyl}-2H-pyrido[3,2-b][1,4]oxazin-3(4H)-one dihydrochloride] | ≤ 2 | 
15 | COc1ccc2ncc(Cl)c(CCN3CC[C@@H](NCc4ccc5c(n4)NC(=O)CS5)[C@H](O)C3)c2n1.Cl.Cl (single isomer, unassigned; enantiomer 2) [Example 39, (trans)-6-({1-[2-(3-Chloro-6-methoxy-[1,5]naphthyridin-4-yl)-ethyl]-3-hydroxy-piperidin-4-ylamino}-methyl)-4H-pyrido[3,2-b][1,4]-thiazin-3-one Dihydrochloride Enantiomer 2] | ≤ 2 | 
16 | COc1ccc2ncc(F)c(CCN3CCC(NCc4cc5c(cn4)OCCC5)CC3)c2n1.Cl.Cl [Example 126, N-(3,4-dihydro-2H-pyrano[2,3-c]pyridin-6-ylmethyl)-1-{2-[3-fluoro-6-(methoxy)-1,5-naphthyridin-4-yl]ethyl}-4-piperidinamine dihydrochloride] | ≤ 2 | 
17 | COc1c(F)ccc2ncc(Cl)c(CCN3CCC(NCc4cc5c(cn4)OCCO5)CC3)c12.Cl.Cl [Example 110, 1-{2-[3-chloro-6-fluoro-5-(methoxy)-4-quinolinyl]ethyl}-N-(2,3-dihydro[1,4]dioxino[2,3-c]pyridin-7-ylmethyl)-4-piperidinamine dihydrochloride] | ≤ 2 | 
18 | COc1cc(F)c2ncc(F)c(CCN3CC[C@H](NCc4cnc5c(c4)NC(=O)CS5)[C@H](O)C3)c2c1.Cl.Cl (single isomer, unassigned; enantiomer 1) [Example 72] | ≤ 2 | 
19 | COc1ccc2ncc(Cl)c(CCN3CC[C@H](NCc4cc5c(cn4)OCCO5)[C@H](O)C3)c2n1.Cl.Cl (single isomer, unassigned; enantiomer 1) [Example 29, (cis)-1-[2-(3-Chloro-6-methoxy-[1,5]naphthyridin-4-yl)-ethyl]-4-[(2,3-dihydro-[1,4]dioxino[2,3-c]pyridin-7-ylmethyl)-amino]-piperidin-3-ol Dihydrochloride Enantiomer 1] | ≤ 2 | 
20 | COc1ccc2ncc(Cl)c(CCN3CC[C@H](NCc4ccc5c(n4)NC(=O)CS5)[C@H](O)C3)c2c1.Cl.Cl (single isomer, unassigned; enantiomer 1) [Example 7, 6-({(cis)-1-[2-(3-Chloro-6-methoxy-quinolin-4-yl)-ethyl]-3-hydroxy-piperidin-4-ylamino}-methyl)-4H-pyrido[3,2-b][1,4]thiazin-3-one Dihydrochloride Enantiomer 1] | ≤ 2 | 
21 | COc1ccc2ncc(F)c(CCN3CCC(CO)(NCc4cc5c(cn4)OCCO5)CC3)c2c1.Cl.Cl [Example 92, (4[(2,3-dihydro[1,4]dioxino[2,3-c]pyridin-7-ylmethyl)amino]-1-{2-[3-fluoro-6-(methoxy)-4-quinolinyl]ethyl}-4-piperidinyl)methanol dihydrochloride] | ≤ 2 | 
22 | COc1ccc2ncc(F)c(CCN3CCC(NCc4cc5c(cn4)OCCS5)CC3)c2c1.Cl.Cl [Example 86, N-(2,3-dihydro[1,4]oxathiino[2,3-c]pyridin-7-ylmethyl)-1-{2-[3-fluoro-6-(methoxy)-4-quinolinyl]ethyl}-4-piperidinamine dihydrochloride] | ≤ 2 | 
23 | COc1ccc2ncc(F)c(CCN3CCC(NCc4ccc5c(c4)CCO5)CC3)c2n1.Cl.Cl [Example 178, N-(2,3-dihydro-1-benzofuran-5-ylmethyl)-1-{2-[3-fluoro-6-(methoxy)-1,5-naphthyridin-4-yl]ethyl}-4-piperidinamine dihydrochloride] | ≤ 2 | 
24 | Cl.Cl.Fc1ccc2ncc(Cl)c(CCN3CCC(NCc4cc5c(cn4)OCCO5)CC3)c2c1 [Example 26, {1-[2-(3-Chloro-6-fluoro-quinolin-4-yl)-ethyl]-piperidin-4-yl}(2,3-dihydro[1,4]dioxino[2,3-c]pyridin-7-ylmethyl)-amine Dihydrochloride] | ≤ 2 | 
25 | COc1ccc2ncc(F)c(CCN3CC[C@H](NCc4cnc5c(c4)NC(=O)CS5)[C@H](O)C3)c2c1.Cl.Cl (single isomer, unassigned; enantiomer 1) [Example 96] | ≤ 2 | 
26 | COc1ccc2ncc(F)c(C(O)CN3CCC(NCc4cc5c(cn4)OCCO5)CC3)c2c1.Cl.Cl (single isomer, unassigned; enantiomer 1) [Example 156, 2-{4-[(2,3-dihydro[1,4]dioxino[2,3-c]pyridin-7-ylmethyl)amino]-1-piperidinyl}-1-[3-fluoro-6-(methoxy)-4-quinolinyl]ethanol dihydrochloride Enantiomer 1] | ≤ 2 | 
27 | COc1ccc2ncc(F)c(CCN3CCC(NC(=O)c4ccc5c(n4)NC(=O)CS5)CC3)c2c1.Cl [Example 95, N-(1-{2-[3-fluoro-6-(methoxy)-4-quinolinyl]ethyl}-4-piperidinyl)3-oxo-3,4-dihydro-2H-pyrido[3,2-b][1,4]thiazine-6-carboxamide hydrochloride] | ≤ 2 | 
